Results on twelve compounds are retold here after patent US20080153872A1, “Bis-(Coumarin) Compounds With Anti-Inflammatory Activity” (priority 2005, published 2008).

In one experiment the target is T1, human 5-LO (Homo sapiens, UniProt P09917).
T1 construct: Human peripheral mononuclear blood cells were isolated using Ficoll density separation; endogenous in cells; host or cells: human peripheral blood mononuclear cells
T1 sequence (P09917 1-674): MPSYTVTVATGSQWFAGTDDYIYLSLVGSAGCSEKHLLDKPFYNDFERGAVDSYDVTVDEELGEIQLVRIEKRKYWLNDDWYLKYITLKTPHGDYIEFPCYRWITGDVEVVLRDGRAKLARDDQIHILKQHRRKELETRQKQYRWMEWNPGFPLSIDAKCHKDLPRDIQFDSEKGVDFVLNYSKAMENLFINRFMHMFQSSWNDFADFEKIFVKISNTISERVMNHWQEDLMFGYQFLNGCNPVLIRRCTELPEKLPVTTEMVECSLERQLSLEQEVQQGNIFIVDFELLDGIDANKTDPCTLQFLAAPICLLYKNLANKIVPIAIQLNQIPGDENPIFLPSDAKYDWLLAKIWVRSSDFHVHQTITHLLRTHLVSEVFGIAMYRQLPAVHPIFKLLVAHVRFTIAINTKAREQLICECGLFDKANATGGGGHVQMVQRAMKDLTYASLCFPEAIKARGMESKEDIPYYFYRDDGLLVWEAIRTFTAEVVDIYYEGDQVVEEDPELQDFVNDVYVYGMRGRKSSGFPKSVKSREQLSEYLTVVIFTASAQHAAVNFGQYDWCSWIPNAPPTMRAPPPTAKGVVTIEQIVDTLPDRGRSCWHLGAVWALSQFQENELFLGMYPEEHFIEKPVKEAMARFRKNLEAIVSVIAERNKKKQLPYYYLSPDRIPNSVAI
Kind of experiment: Human 5-Lipoxygenase, 5-LO, assay in peripheral mononuclear blood cells. It counts as cell-based. The note with it: 10 μM concentration, LTB4 readout. The protocol:
(§1) All compounds were dissolved in dimethyl sulfoxide (DMSO). Final concentration of the DMSO in all tests was 1% (v/v). Inhibition in all tests is considered preferred if it exceeds 50% at 10 μM concentration (or less).
Human peripheral mononuclear blood cells were isolated using Ficoll density separation. Cells were incubated in Hanks Balanced Salt Solution (HBSS) with compounds for 15 minutes at 37° C. Substrate (arachidonic acid) was added in 20 μM final concentration and cells were incubated for another 15 minutes. LTB4 as a final product of arachidonic acid metabolism was measured using competitive enzyme immunoassay (See, e.g., Safayhi, H. et al. Planta Medica 2000, 66, 110-113) and percentage of inhibition was calculated from the levels of LTB4 in cell supernatant.

Another experiment concerns human PDE4. Kind of experiment: Human PDE4 assay (U937). The class given is biochemical. The note with it: 10 μM concentration. The protocol: as §1
PDE4 assay. PDE is implicated in diseases such as chronic obstructive pulmonary disease and neutrophilia. Human monocytic leukemia cell line U937 is pre-incubated at 25° C. in Tris-HCl buffer containing magnesium ions for 15 minutes. 1.01 μM tritium labeled cyclic adenosine monophosphate (cAMP) is added as substrate, followed by incubation at 25° C. for 20 minutes. Percentage of inhibition is calculated by comparing the adenosine levels in supernatant which is formed from cAMP in treated versus control cells.

In the next experiment the target is T2, human PDE3 (Homo sapiens, UniProt Q14432).
T2 construct: Isolated human platelets are pre-incubated at 25° C; from tissue; host or cells: human platelets
Briefly: Human PDE3 assay (platelets). The class given is biochemical. The note with it: 10 μM concentration. The protocol:
as §1
PDE3 assay. Isolated human platelets are pre-incubated at 25° C. in Tris-HCl buffer containing magnesium ions for 15 minutes. 1.01 μM tritium labeled cyclic adenosine monophosphate (cAMP) is added as substrate, followed by incubation at 25° C. for 20 minutes. Percentage of inhibition is calculated by comparing the adenosine levels in supernatant which is formed from cAMP in treated versus control cells.

In another experiment the target is T3, TxA2 receptor (Homo sapiens, UniProt P21731).
T3 construct: expressed in transfected cells; host or cells: HEK-293
T3 sequence (P21731 1-343): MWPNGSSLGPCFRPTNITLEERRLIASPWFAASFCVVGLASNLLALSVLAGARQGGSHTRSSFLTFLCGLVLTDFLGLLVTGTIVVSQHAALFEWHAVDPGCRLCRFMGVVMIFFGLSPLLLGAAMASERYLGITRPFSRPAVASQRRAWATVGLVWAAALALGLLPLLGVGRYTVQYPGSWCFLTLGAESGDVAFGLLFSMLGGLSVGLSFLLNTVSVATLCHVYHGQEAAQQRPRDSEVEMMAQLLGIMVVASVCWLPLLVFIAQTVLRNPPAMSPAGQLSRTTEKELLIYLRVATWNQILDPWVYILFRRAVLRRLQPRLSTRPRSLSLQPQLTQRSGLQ
Kind of experiment: Human thromboxane A2, TxA2, assay (SQ-29548 competition). The note with it: 10 μM concentration; HEK-293. The class given is binding. The protocol: as §1
TxA2 receptor is expressed in HEK-293 cell line. Compounds and radiolabelled competitor SQ-29548 are incubated for 30 minutes at 25° C. Level of bound SQ-29548 is measured by scintillation counting, and competition is calculated from the total amount of the bound SQ-29548. […] is an unstable lipid mediator involved in blood clotting, and immune processes.

A further experiment deals with CD1 mice. Briefly: PMA induced ear oedema in CD1 mice. The settings on record: topical, single dose of 250 or 100 μg/15 μL/ear; statistically significant vs positive control. It counts as in vivo, mouse. The protocol:
Male CD1 mice (Iffa Credo, France) weighing ˜35-40 g were randomly grouped (n=8 in vehicle treated test group, dexamethasone treated control group as well as in groups treated with compounds to be assayed). Test compounds, dexamethasone as well as vehicle (Trans-phase Delivery System, containing benzyl alcohol 10%, acetone 40% and isopropanol 50%) (all from Kemika, Croatia), were administered topically to the internal surface of the left ear thirty minutes prior to administration of phorbol 12-myristate 13-acetate (PMA) (Alexis biochemicals, USA). Test compounds were administered at a single dose of 250 or 100 μg/15 μL/ear and dexamethasone at a single dose of 50 μg/15 μL/ear. Thirty minutes later, 0.01% PMA solution in acetone was applied topically to the same area of each animal in a volume of 12 μL/ear. During the treatment and challenge, animals were anaesthetized by using inhalation anaesthesia. Six hours after the challenge, animals were euthanized by asphyxiation in 100% CO2 atmosphere. For assessing the auricular oedema, 8 mm discs were cut out of left and right auricular pinna and weighed. The degree of oedema was calculated by subtracting the weight of 8 mm disc of the untreated ear from that of the treated contralateral ear.

A further experiment deals with T4, CysLT1 receptor (Homo sapiens, UniProt Q9Y271).
T4 construct: expressed in transfected cells; host or cells: CHO-K1
T4 sequence (Q9Y271 1-337): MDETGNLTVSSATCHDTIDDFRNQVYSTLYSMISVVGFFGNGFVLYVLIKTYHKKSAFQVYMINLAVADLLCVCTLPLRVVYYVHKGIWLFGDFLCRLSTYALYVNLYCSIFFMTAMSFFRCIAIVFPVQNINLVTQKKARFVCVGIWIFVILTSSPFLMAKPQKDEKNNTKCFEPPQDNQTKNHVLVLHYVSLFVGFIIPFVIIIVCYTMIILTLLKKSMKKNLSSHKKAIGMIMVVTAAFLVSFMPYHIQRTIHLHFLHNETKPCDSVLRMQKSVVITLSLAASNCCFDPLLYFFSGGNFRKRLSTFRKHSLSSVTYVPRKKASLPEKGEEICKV
Briefly: Human cysteinyl leukotriene receptor 1 (CysLT1) radioligand binding assay. The settings on record: 10 μM concentration; CHO-K1 cells. The protocol: as §1
CysLT1 receptor is involved in immune diseases such as asthma, and has clinical significance as a point of intervention in asthma therapy. CysLT1 receptor is expressed in CHO-K1 cells (Chinese hamster ovary cells K1 clone). This is a competitive radioligand binding assay where substances compete with [^3H]-labeled Leulcotirene D4 (LTD4). Radioactive substance is measured with scintillation counting. Percentage of inhibition is calculated from the total radioactivity of the sample.

Experiment [1] concerns Human prostanoid receptor. Briefly: Human prostanoid receptor assay ([3H]-PGD2 competition). The settings on record: 10 μM concentration; CHO-K1. The class given is binding. The protocol: as §1
Human prostanoid receptor is expressed in Chinese hamster ovary cell line, clone K1 (CHO-K1). Substances and radioactive competitor (tritium labelled Prostaglandin D2 in 1.7 nM concentration) are incubated with cells in HEPES buffer for 2 hours at 25° C. in the presence of manganese ions. Level of the bound PGD2 is measured by scintillation counting, and competition is calculated from comparing the total amount of the bound PGD2 in treated versus control cells. Prostanoids are involved in many physiological and pathological processes, from inflammation to pain.

Another experiment deals with IL-5. Kind of experiment: Inhibition of IL-5 production by ConA stimulated mouse splenocytes. It counts as cell-based. The note with it: 25 μM. The protocol:
Spleen cell suspension was obtained from BALB/c mice and lymphocytes separated by gradient density centrifugation on Histopaque 1.083 on 400 g for 30 minutes. They were washed once in medium, counted and their number adjusted as 3×10^5/200 μL/well in 96 flat bottomed culture plate in RPMI supplemented with 10% fetal bovine serum. Cells were stimulated on cytokine production by adding concanavalinA (ConA) at 5 μg/mL final concentration. Unstimulated cells were cultured in medium alone. Stock solution was prepared out of testing compounds as 10 mM in DMSO. Final concentrations made in cell culture medium were tested when they had been added together with ConA. After 72 hours incubation period cell culture supernatants were collected. In each sample IL-4, IL-5, IL-10 and IFNγ were detected and quantified using enzyme linked immunosorbent assay (ELISA) specific for pointed cytokines (R&D Systems).
To calculate results, standard curve was made out of measured OD values for recombinant protein in known concentrations. Cytokine content in unknown samples was calculated out of OD values extrapolated from the standard curve.
Percentage of inhibition is calculated using formula:
% Inhibition=(1−cytokine concentration of sample/cytokine concentration of positive control)×100.

T2 sequence (Q14432 whole entry): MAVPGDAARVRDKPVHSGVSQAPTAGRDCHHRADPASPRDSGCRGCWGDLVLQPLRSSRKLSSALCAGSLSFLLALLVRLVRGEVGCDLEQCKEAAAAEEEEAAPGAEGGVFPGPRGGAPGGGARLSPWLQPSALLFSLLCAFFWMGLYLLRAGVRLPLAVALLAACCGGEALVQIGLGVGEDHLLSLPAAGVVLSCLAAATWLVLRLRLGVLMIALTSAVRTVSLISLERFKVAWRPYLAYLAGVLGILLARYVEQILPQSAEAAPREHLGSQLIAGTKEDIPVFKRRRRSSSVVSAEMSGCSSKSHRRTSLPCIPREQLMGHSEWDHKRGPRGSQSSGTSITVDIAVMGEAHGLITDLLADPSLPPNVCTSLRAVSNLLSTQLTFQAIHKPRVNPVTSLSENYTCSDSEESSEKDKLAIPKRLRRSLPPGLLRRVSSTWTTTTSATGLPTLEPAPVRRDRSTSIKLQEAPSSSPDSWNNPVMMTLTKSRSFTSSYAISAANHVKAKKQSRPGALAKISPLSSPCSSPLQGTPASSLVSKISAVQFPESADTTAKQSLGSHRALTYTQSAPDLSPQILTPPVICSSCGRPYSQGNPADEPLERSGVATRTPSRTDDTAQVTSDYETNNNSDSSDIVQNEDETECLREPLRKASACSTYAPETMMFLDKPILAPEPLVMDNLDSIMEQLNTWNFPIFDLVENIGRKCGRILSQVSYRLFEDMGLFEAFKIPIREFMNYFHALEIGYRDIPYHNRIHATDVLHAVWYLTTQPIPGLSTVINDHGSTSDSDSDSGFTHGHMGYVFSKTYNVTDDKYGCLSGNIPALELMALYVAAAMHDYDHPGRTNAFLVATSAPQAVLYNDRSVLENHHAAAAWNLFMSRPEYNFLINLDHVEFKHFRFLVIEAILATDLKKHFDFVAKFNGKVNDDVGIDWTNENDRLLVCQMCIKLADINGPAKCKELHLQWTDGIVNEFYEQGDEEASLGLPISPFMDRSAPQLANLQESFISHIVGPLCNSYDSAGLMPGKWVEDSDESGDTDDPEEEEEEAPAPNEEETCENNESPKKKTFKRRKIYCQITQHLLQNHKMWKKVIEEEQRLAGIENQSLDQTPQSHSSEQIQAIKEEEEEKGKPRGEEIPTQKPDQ

`CCc1cccc2c(O)c(C(C(C)=O)c3c(O)c4cccc(CC)c4oc3=O)c(=O)oc12` [Example 17]: the “inhibition of human 5-LO” value against human 5-LO is listed as “significantly relevant activity”. The “inhibition of human PDE4 activity” value with human PDE4 was “significantly inhibited”. Besides, the “inhibition of human PDE3 activity” value against human PDE3 was “significantly inhibited”. The “TxA2 receptor, competition with SQ-29548” value at TxA2 receptor is on record as “significantly relevant activity”.

As for `CC(=O)C(c1c(O)c2cc(Cl)c(C)cc2oc1=O)c1c(O)c2cc(Cl)c(C)cc2oc1=O` [Example 25], the “suppression of ear oedema” value in the experiment with CD1 mice is “considered active”.

With `CCc1ccc2oc(=O)c(C(C(C)=O)c3c(O)c4cc(CC)ccc4oc3=O)c(O)c2c1` [Example 26], the “suppression of ear oedema” value in the experiment on CD1 mice is on record as “considered active”.

In the case of `Cc1cc2oc(=O)c(C(CO)c3c(O)c4cc(C)c(C)cc4oc3=O)c(O)c2cc1C` [Example 28], the “suppression of ear oedema” value in the experiment with CD1 mice was “considered active”.

`CCc1ccc2oc(=O)c(C(CO)c3c(O)c4cc(CC)ccc4oc3=O)c(O)c2c1` [Example 29]: the “suppression of ear oedema” value in the experiment with CD1 mice is recorded as “considered active”.

Take `Cc1cc2oc(=O)c(C(C(=O)OCCO)c3c(O)c4cc(C)c(C)cc4oc3=O)c(O)c2cc1C` [Example 51]: the “suppression of ear oedema” value in the experiment with CD1 mice is given as “considered active”.

For `Cc1cc2oc(=O)c(C(C(=O)OCCO)c3c(O)c4cc(Cl)c(C)cc4oc3=O)c(O)c2cc1Cl` [Example 54], the “suppression of ear oedema” value in the experiment with CD1 mice is “considered active”.

On to `O=c1oc2ccccc2c(O)c1C(c1cccc(Cl)c1)c1c(O)c2ccccc2oc1=O` [Example 66], for which the “suppression of ear oedema” value in the experiment with CD1 mice is “considered active”.

Take `CCOC(=O)C(c1c(O)c2cccc(C(C)C)c2oc1=O)c1c(O)c2cccc(C(C)C)c2oc1=O` [Example 292]: the “suppression of ear oedema” value in the experiment on CD1 mice is on record as “considered active”.

`O=c1oc2ccccc2c(O)c1C(c1ccc2c(c1)OCO2)c1c(O)c2ccccc2oc1=O` [Example 349]: the “inhibition of human 5-LO” value against human 5-LO is on record as “significantly relevant activity”. For the same compound, the “suppression of ear oedema” value in the experiment with CD1 mice was “considered active”. In addition, on CysLT1 receptor, the “CysLT1 receptor, competition with [3H]-LTD4” value is on record as “significantly relevant activity”. The “TxA2 receptor, competition with SQ-29548” value at TxA2 receptor is recorded as “significantly relevant activity”.

Take `O=c1oc2ccccc2c(O)c1C(c1cnc2ccccc2c1)c1c(O)c2ccccc2oc1=O` [Example 351]: the “inhibition of human 5-LO” value against human 5-LO is reported as “significantly relevant activity”. Also, the “inhibition of human PDE4 activity” value in the experiment on human PDE4 is “significantly inhibited”. Moreover, the “inhibition of human PDE3 activity” value against human PDE3 is “significantly inhibited”. In addition, in the experiment with CD1 mice, the “suppression of ear oedema” value is given as “considered active”. Besides, the “CysLT1 receptor, competition with [3H]-LTD4” value at CysLT1 receptor is on record as “significantly relevant activity”. Besides, the “human prostanoid receptor, competition with tritium labelled PGD2” value in experiment [1] is “significantly relevant activity”.

For the compound `CC(C)c1cccc2c(O)c(C(c3c(O)c4cccc(C(C)C)c4oc3=O)C(C)O)c(=O)oc12` (stereo not drawn) [Example 364], the “inhibition of IL-5 production” value in the experiment with IL-5 is “significantly inhibited”. Also, the “suppression of ear oedema” value in the experiment with CD1 mice is recorded as “considered active”.
